We go through 14 molecules from EP2063887B1, “NEW SMALL MOLECULE INHIBITORS OF MDM2 AND THE USES THEREOF” (priority 2006, dated 2008).

Several values for one entry are separate records, joined by “and”; a condition that tells them apart may be missing. Equal values may be shown once. Read-outs that look alike come from different tables or passages of the source.

Test [1] relates to PC-3 (p53 null). The test can be described thus: Cell growth inhibition (WST-8, 4 days), PC3.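 Further: PC-3 is a human prostate cancer line, cultured with test compound throughout the 4-day growth assay.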 The test is classed as cell-based, human.
Description: (§1) To test these predictions, a cell growth assay was developed using human prostate cancer LNCaP (p53 wild-type) and PC-3 (p53 null) cell lines. The toxic effects of compounds of the invention were tested.
(§2) Cells were seeded in 96-well flat bottom cell culture plates at a density of 3-4x 10^3 cells/well and incubated in the presence of compounds for 4 days.
Test [2] relates to HCT116 p53KO. The test can be described thus: Cell growth inhibition (WST-8), HCT116 p53KO.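 Further: cells in 96-well plates exposed to compound for 4 days.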 The class given is cell-based. In general terms: Tetrazolium dyes change colour on reduction, which living cells bring about.
Description: as §2
Test [3] addresses MDM2 protein (Homo sapiens, UniProt Q00987). Kind of test: MDM2 binding assay, competition with tracer F-6 (IC50 and calculated Ki). The conditions noted are these: MDM2 [10 nM]; F-6 [1 nM]; individual determinations, values not in parentheses.
For test [4], the system named is HCT116 p53WT. Kind of test: Cell growth inhibition (WST-8), HCT116 p53WT.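 Further: compound exposure of the cells lasted 4 days.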 The test is classed as cell-based. As to conditions: individual determinations and mean ± SD lines.
Description: as §2
Test [5] deals with LNCaP (p53 wild-type). Kind of test: Cell growth inhibition (WST-8, 4 days), LNCaP.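 Further: LNCaP human prostate cancer cells exposed to compound for 4 days, with inhibition of cell growth as the measured effect.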 The test is classed as cell-based, human.
Description: as §1, §2
Where [6] appears, read: PC3, p53 null, individual determinations and mean ± SD lines, read-out: PC3 IC50.
Where [7] appears, read: HCT116 p53KO, individual determinations and mean ± SD lines, read-out: HCT116 p53KO IC50.
[8] abbreviates: HCT116 p53WT, read-out: HCT116 p53WT IC50.
Setting [9] is: read-out: PC3 IC50, PC3, p53 null, individual determinations and mean ± SD lines.
Where [10] appears, read: read-out: HCT116 p53KO IC50, HCT116 p53KO, individual determinations and mean ± SD lines.
Where [11] appears, read: read-out: LNCaP IC50, individual determinations and mean ± SD lines.
Where [12] appears, read: Homo sapiens, HCT-116, read-out: HCT116 p53WT IC50 (µM), HCT116 p53WT.
Setting [13] is: read-out: HCT116 p53WT IC50, HCT116 p53WT.
The mark [14] stands for this setting: individual determinations and mean ± SD lines, read-out: LNCaP IC50.
The mark [15] stands for this setting: Homo sapiens, HCT-116, HCT116 p53KO, individual determinations and mean ± SD lines, read-out: HCT116 p53KO IC50.
Where [16] appears, read: Homo sapiens, 96 h, individual determinations and mean ± SD lines, read-out: LNCaP IC50.
Setting [17] is: Homo sapiens, HCT-116, HCT116 p53WT, read-out: HCT116 p53WT IC50.
[18] abbreviates: Homo sapiens, 96 h, PC3, p53 null, individual determinations and mean ± SD lines, read-out: PC3 IC50.

Sequence of MDM2 protein (Q00987 whole entry, species assumed): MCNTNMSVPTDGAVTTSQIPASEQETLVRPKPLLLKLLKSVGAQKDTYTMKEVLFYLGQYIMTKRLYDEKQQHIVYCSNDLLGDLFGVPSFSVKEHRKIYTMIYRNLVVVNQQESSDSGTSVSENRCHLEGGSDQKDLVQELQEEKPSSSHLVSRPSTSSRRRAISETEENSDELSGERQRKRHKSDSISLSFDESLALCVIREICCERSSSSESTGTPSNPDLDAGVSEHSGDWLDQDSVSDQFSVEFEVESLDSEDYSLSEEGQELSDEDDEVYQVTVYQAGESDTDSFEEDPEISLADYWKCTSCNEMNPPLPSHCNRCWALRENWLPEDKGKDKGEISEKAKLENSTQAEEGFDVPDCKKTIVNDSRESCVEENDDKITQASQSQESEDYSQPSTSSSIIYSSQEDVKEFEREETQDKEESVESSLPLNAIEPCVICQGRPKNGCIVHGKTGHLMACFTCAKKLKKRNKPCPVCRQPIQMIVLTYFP

On to “6-CHLORO-4'-(3-CHLORO-4-FLUOROPHENYL)-2'-(2,2-DIMETHYL-PROPYL)-5-FLUORO-2-OXO-1'-OXY-1,2,4',5'-TETRAHYDRO-SPIRO[INDOLE-3,3'-PYRROLE]-5'-CARBOXYLIC ACID (3,4-DIHYDROXY-BUTYL)-AMIDE [MI-319-14]”, for which the IC50 (in general, the concentration that inhibits the measured activity by half) in test [1] (setting [6]) was 40.1 µM and 40.2 µM and > 30 µM; in test [2] (setting [7]), > 30 µM; in test [3], 2.04 µM and 1.66 µM; in test [4] (setting [8]), 8.01 µM and 9.27 µM and 5.74 µM and 7.67 µM.

For `CC(C)(C)C[C@H]1N[C@@H](C(=O)NCCC2CCC(O)C2)[C@H](c2ccc(F)c(Cl)c2)[C@@]12C(=O)Nc1cc(Cl)c(F)cc12` (single isomer, unassigned) [MDM2-319-6, 6-CHLORO-4'-(3-CHLORO-4-FLUOROPHENYL)-2'-(2,2-DIMETHYL-PROPYL)-5-FLUORO-2-OXO-1,2-DIHYDRO-SPIRO[INDOLE-3,3'-PYRROLIDINE]-5'-CARBOXYLIC ACID [2-(3-HYDROXY-CYCLOPENTYL)-ETHYL)-AMIDE], the IC50 is 21.4 µM in test [1] (Homo sapiens, 96 h, read-out: PC3 IC50 (µM), PC3, p53 null, individual determinations and mean ± SD lines); 20.8 µM and 14.2 µM and 18.7 µM in test [1] (setting [9]); 14.3 µM in test [2] (Homo sapiens, HCT-116, read-out: HCT116 p53KO IC50 (µM), HCT116 p53KO, individual determinations and mean ± SD lines); 16.1 µM and 14.6 µM and 15 µM in test [2] (setting [10]); 2.58 µM and 1.22 µM and 1.93 µM and 1.91 µM in test [5] (setting [11]); 5.45 µM in test [4] (setting [12]). Further, in test [4] (setting [13]), the IC50 is 7.41 µM and 5.96 µM and 6.26 µM.

Turning to `CC(C)(C)C[C@H]1N[C@@H](C(=O)NCC[C@H](O)CO)[C@H](c2ccc(F)c(Cl)c2)[C@@]12C(=O)Nc1cc(Cl)c(F)cc12` [MDM2-319, (2'R,3S,3"S,4'R,5'R) 6-CHLORO-4'-(3-CHLORO-4-FLUORO-PHENYL)-2'-(2,2-DIMETHYL-PROPYL)-5-FLUORO-2-OXO-1,2-DIHYDRO-SPIRO[INDOLE-3,3'-PYRROLIDINE]-5'-CARBOXYLIC ACID (3,4-DIHYDROXY-BUTYL)-AMIDE], the IC50 is 11.8 µM and 12.2 µM and 14.2 µM in test [2] (read-out: HCT116 p53KO IC50); 0.274 µM and 0.184 µM and 0.229 µM in test [5] (setting [14]); 0.717 µM and 0.615 µM and 0.247 µM and 0.52 µM in test [4] (setting [8]).

As to `O=C(NCC[C@H](O)CO)[C@@H]1N[C@H](CC2CCCC2)[C@]2(C(=O)Nc3cc(Cl)c(F)cc32)[C@H]1c1ccc(F)c(Cl)c1` [MDM2-319-1, 6-CHLORO-4'-(3-CHLORO-4-FLUOROPHENYL)-2'-CYCLOPENTYLMETHYL-5-FLUORO-2-OXO-1,2-DIHYDRO-SPIRO[INDOLE-3,3'-PYRROLIDINE]-5'-CARBOXYLIC ACID (3,4-DIHYDROXY-BUTYL)-AMIDE], the half-inhibitory concentration (IC50) in test [2] (setting [7]) came to 10.4 µM; in test [2] (setting [15]), 12.7 µM; in test [5] (setting [16]) it was 0.261 µM; in test [5] (setting [14]), 0.36 µM; in test [4] (setting [8]) it was 1.36 µM; in test [4] (setting [17]), 0.908 µM.

For `O=C(NCC[C@H](O)CO)[C@@H]1N[C@H](C2CCCCC2)[C@]2(C(=O)Nc3cc(Cl)c(F)cc32)[C@H]1c1ccc(F)c(Cl)c1` [MDM2-319-4, 6-CHLORO-4'-(3-CHLORO-4-FLUOROPHENYL)-2'-CYCLOHEXYL-5-FLUORO-2-OXO-1,2-DIHYDRO-SPIRO[INDOLE-3,3'-PYRROLIDINE]-5'-CARBOXYLIC ACID (3,4-DIHYDROXY-BUTYL)-AMIDE], the IC50 was 18.5 µM in test [1] (setting [18]); 23.4 µM and 25.6 µM and 22.5 µM in test [1] (setting [6]); 13.1 µM and 26.5 µM and 13.4 µM and 17.6 µM in test [2] (setting [7]); 1.42 µM in test [5] (setting [16]); 1.29 µM and 0.89 µM and 1.21 µM in test [5] (setting [14]); 5.03 µM and 5.8 µM and 2.41 µM and 4.41 µM in test [4] (setting [8]).

As to `CC(C)(C)C[C@H]1N[C@@H](C(=O)NCCC2CCC(O)C2)[C@H](c2ccc(F)c(Cl)c2)[C@@]12C(=O)Nc1cc(Cl)c(F)cc12` (stereo partly shown) [MDM2-319-5], the IC50 in test [1] (setting [6]) was 5.55 µM and 8.71 µM and 7.91 µM; in test [2] (setting [7]), 5.39 µM and 8.4 µM and 8.1 µM; in test [5] (setting [14]) it was 0.465 µM and 0.634 µM and 0.56 µM; in test [4] (setting [8]) it was 1.29 µM and 1.5 µM and 1.23 µM.

Consider `COC(C)(C)C[C@H]1N[C@@H](C(=O)NCC[C@H](O)CO)[C@H](c2ccc(F)c(Cl)c2)[C@@]12C(=O)Nc1cc(Cl)c(F)cc12` [MI-319-7], for which the IC50 in test [1] (setting [6]) was found to be 34.3 µM; in test [5] (setting [14]), 1.92 µM; in test [4] (setting [8]), 7.95 µM.

For `O=C(NCC[C@H](O)CO)[C@@H]1N[C@H](C2CCCC2)[C@]2(C(=O)Nc3cc(Cl)c(F)cc32)[C@H]1c1ccc(F)c(Cl)c1` [MI-319-8, 6-CHLORO-4'-(3-CHLORO-4-FLUOROPHENYL)-2'-CYCLOPENTYL-5-FLUORO-2-OXO-1,2-DIHYDRO-SPIRO[INDOLE-3,3'-PYRROLIDINE]-5'-CARBOXYLIC ACID (3,4-DIHYDROXY-BUTYL)-AMIDE], the IC50 was 30.7 µM in test [1] (setting [18]); 20.7 µM and 18.4 µM and 23.3 µM in test [1] (setting [6]); 25.5 µM and 22.7 µM and 26.3 µM in test [2] (setting [7]); 30.9 µM in test [2] (setting [15]); 0.963 µM and 0.893 µM and 0.662 µM and 1.46 µM in test [5] (setting [14]); 4.73 µM and 2.74 µM and 3.86 µM in test [4] (setting [8]). Further, the half-inhibitory concentration (IC50) in test [4] (setting [17]) was determined as 4.11 µM.

Regarding `CN1CCN(C(=O)[C@@H]2N[C@H](CC(C)(C)C)[C@]3(C(=O)Nc4cc(Cl)c(F)cc43)[C@H]2c2ccc(F)c(Cl)c2)CC1` [MI-319-9], the concentration for half-maximal inhibition (IC50) in test [2] (setting [10]) was 9.71 µM and 8.19 µM and 4.52 µM and 7.47 µM; in test [5] (setting [11]) it was 5 µM and 2.46 µM; in test [4] (setting [12]), 7.48 µM; in test [4] (setting [13]) it was 9.2 µM and 4.63 µM and 7.1 µM.

Turning to `CC(=O)N1[C@@H](C(=O)NCC[C@H](O)CO)[C@H](c2ccc(F)c(Cl)c2)[C@@]2(C(=O)Nc3cc(Cl)c(F)cc32)[C@H]1CC(C)(C)C` [MI-319-13, 1'-ACETYL-6-CHLORO-4'-(3-CHLORO-4-FLUOROPHENYL)-2'-(2,2-DIMETHYLPROPYL)-5-FLUORO-2-OXO-1,2-DIHYDRO-SPIRO[INDOLE-3,3'-PYRROLIDINE]-5'-CARBOXYLIC ACID (3,4-DIHYDROXY-BUTYL)-AMIDE], the IC50 in test [5] (setting [11]) was 3.66 µM and 2.32 µM and 4.85 µM and 3.6 µM; in test [4] (setting [13]) it was 3.23 µM and 6.37 µM and 11 µM and 6.85 µM.

With `CC(C)(C)C[C@H]1N[C@@H](C(=O)NCCn2ccnc2)[C@H](c2ccc(F)c(Cl)c2)[C@@]12C(=O)Nc1cc(Cl)c(F)cc12` [MI-319-17, 6-CHLORO-4'-(3-CHLORO-4-FLUOROPHENYL)-2'-(2,2-DIMETHYL-PROPYL)-5-FLUORO-2-OXO-1,2-DIHYDRO-SPIRO[INDOLE-3,3'-PYRROLIDINE]-5'-CARBOXYLIC ACID (2-IMIDAZOL-1-YL-ETHYL)-AMIDE], the half-inhibitory concentration (IC50) in test [1] (setting [18]) was 14 µM; in test [1] (setting [6]) it was 22 µM and 23.6 µM; in test [2] (setting [7]) it was 22.3 µM and 25.1 µM; in test [2] (setting [15]), 25.1 µM; in test [5] (setting [16]), 1.1 µM; in test [5] (setting [14]), 1.55 µM and 1.51 µM. Also, the IC50 is 3.79 µM and 3.15 µM in test [4] (setting [8]); 2.1 µM in test [4] (setting [17]).

Turning to `CC(C)(C)C[C@H]1N[C@@H](C(=O)NC[C@H](O)[C@H](O)CO)[C@H](c2ccc(F)c(Cl)c2)[C@@]12C(=O)Nc1cc(Cl)c(F)cc12` [MI-319-19, 6-CHLORO-4'-(3-CHLORO-4-FLUOROPHENYL)-2'-(2,2-DIMETHYL-PROPYL)-5-FLUORO-2-OXO-1,2-DIHYDRO-SPIRO[INDOLE-3,3'-PYRROLIDINE]-5'-CARBOXYLIC ACID (2,3,4-TRIHYDROXY-BUTYL)-AMIDE], the IC50 in test [1] (setting [18]) was 30.7 µM; in test [1] (setting [6]), > 30 µM and 41.6 µM; in test [2] (setting [7]), > 30 µM and 77.6 µM; in test [5] (setting [16]) it was 1.24 µM; in test [5] (setting [14]), 2.4 µM and 1.2 µM; in test [4] (setting [8]) it was 2.68 µM and 5.98 µM and 4.6 µM.

As for `CC(C)(C)C[C@H]1N[C@@H](C(=O)NCCNC(=N)N)[C@H](c2ccc(F)c(Cl)c2)[C@@]12C(=O)Nc1cc(Cl)c(F)cc12` [MI-319-20, 6-CHLORO-4'-(3-CHLORO-4-FLUOROPHENYL)-2'-(2,2-DIMETHYL-PROPYL)-5-FLUORO-2-OXO-1,2-DIHYDRO-SPIRO[INDOLE-3,3'-PYRROLIDINE]-5'-CARBOXYLIC ACID (2-GUANIDINO-ETHYL)-AMIDE], the IC50 was > 30 µM and 66.1 µM in test [1] (setting [9]); > 100 µM in test [2] (setting [10]); > 30 µM and 93.5 µM in test [4] (setting [13]).

For `CC(C)(C)C[C@H]1N[C@@H](C(=O)NCCc2ncc[nH]2)[C@H](c2cccc(Cl)c2)[C@@]12C(=O)Nc1cc(Cl)c(F)cc12` [MI-319-21], the IC50 amounted to 14.1 µM in test [1] (setting [6]), 13.2 µM in test [2] (setting [7]), 1.84 µM in test [5] (setting [14]) and 3.88 µM in test [4] (setting [8]).
